# Where two headings read alike, the source gives them in different places.
# How the values were obtained:
# [1] = test system: human lymphoblastic leukemia (CCRF-CEM); assay: In vitro cytotoxicity, XTT assay, CCRF-CEM; type: cell-based
# From the text: (§1) Human colon carcinoma HCT-116 cells and human prostate adenocarcinoma PC-3 cells were obtained from American Type Culture Collection (ATCC, Rockville, Md.). Human mammary carcinoma (MX-1) tumor cells were obtained from MSKCC cell bank. The CCRF-CEM human lymphoblastic leukemia cells and their vinblastine resistant subline (CCRF-CEM/VBL, 680-fold resistance in vitro) were obtained from Dr. William Beck of the University of Illinois, Chicago, and CCRF-CEM/Taxol (330-fold resistance in vitro). Resistant cells CCRF-CEM/taxol were produced by exposing the parent cells to increasing sublethal concentration (IC50-IC90) of paclitaxel for six months.
# (§2) In preparation for in vitro cytotoxicity assays, cells were cultured at an initial density 2−5×10^4 cells per milliliter. They were maintained in a 5% CO2-humidified atmosphere at 37° C. in RPMI medium 1640 (GIBCO/BRL) containing penicillin (100 units/mL), streptomycin (100 μg/mL, GIBCO/BRL), and 5% heat-inactivated FBS. For cells grown in suspension (such as CCRF-CEM and its sublines), cytotoxicity was measured, by using XTT microculture method^23 in 96-well microtiter plates.
# (§3) The cytotoxic effects of the newly synthesized compounds were determined in T-cell acute lymphocytic leukemia (CCRF-CEM) and their resistant subcell lines (CCRF-CEM/Taxol and CCRF-CEM/VBL) by the XTT assay^24 and human solid tumor cells (i.e. breast carcinoma MX-1 and colon carcinoma HCT-116) by the SRB assay^25 in a 72 h incubation using a microplate spectrophotometer as described previously.^25 After the addition of phenazine methosulfate-XTT solution, incubated at 37° C. for 6 h and absorbance at 450 and 630 nm was detected on a microplate reader (EL 340). The cytotoxicity of the newly synthesized compounds against non-small cell lung carcinoma H1299, prostate cancer PC3, oral cancer OECM-1 and glioma U87 were determined by the Alamar blue assay^26 in a 72 h incubation using a microplate spectrophotometer as described previously. After the addition of alamar blue solution, it was incubated at 37° C. for 6 h. Absorbance at 570 and 600 nm was detected on a microplate reader. IC50 values were determined from dose-effect relationship at six or seven concentrations of each drug using the CompuSyn software by Chou and Martin^27 based on the median-effect principle and plot.^28,29 Ranges given for Cisplatin were mean±SE (n=4).
# [2] = test system: CCRF-CEM/Taxol; assay: In vitro cytotoxicity, XTT assay, CCRF-CEM/Taxol; type: cell-based, human; conditions: Table 5; for IC50: Taxol-resistant subline, XTT, 72 h, read-out: Cell Growth inhibition (IC50 μM) CCRF-CEM/Taxol; for fold of cross-resistant vs IC50 of the parent cell line, CCRF-CEM/Taxol: number in brackets
# From the text: as §1, §2, §3
# [3] = test system: CCRF-CEM/VBL; assay: In vitro cytotoxicity, XTT assay, CCRF-CEM/VBL; type: cell-based, human; conditions: Table 5; for fold of cross-resistant vs IC50 of the parent cell line, CCRF-CEM/VBL: number in brackets; for IC50: vinblastine-resistant subline, XTT, 72 h, read-out: Cell Growth inhibition (IC50 μM) CCRF-CEM/VBL
# From the text: as §1, §2, §3
# [4] = test system: non-small cell lung carcinoma H1299; assay: In vitro cytotoxicity, Alamar blue assay, H1299; type: cell-based, human
# Experimental: (§4) Prostate cancer PC3, non-small cell lung carcinoma cells H1299, and human glioma cells U87 were purchased from the American Type Culture Collection (Rockville, Md.). OECM-1 (human gingival squamous cell carcinoma cells) was obtained from Dr C.-L. Meng (National Defense Medical College, Taiwan).^22
# as §2, §3
# [5] = test system: prostate cancer PC3; assay: In vitro cytotoxicity, Alamar blue assay, PC3; type: cell-based, human; conditions: Table 6, 72 h
# Experimental: as §4, §2, §3
# [6] = test system: oral cancer OECM-1; assay: In vitro cytotoxicity, Alamar blue assay, OECM-1; type: cell-based, human
# Experimental: as §4, §2, §3
# [7] = test system: glioma U87; assay: In vitro cytotoxicity, Alamar blue assay, U87; type: cell-based, human
# Experimental: as §4, §2, §3
# [8] = test system: linearized pBR322DNA; assay: DNA cross-linking, alkaline agarose gel shift assay; type: biochemical; conditions: 1, 10, and 20 μM; FIG. 8
# Experimental: Formation of DNA cross-linking was analyzed by alkaline agarose gel electrophoresis assay. […] The reaction mixture was incubated at 37° C. for 2 h. At the end of reaction, the plasmid DNA was linearized by digestion with BamHI and followed by precipitation with ethanol. The DNA pellets were dissolved and denatured in alkaline buffer (0.5 N NaOH-10 mM EDTA). An aliquot of 20 μL of DNA solution (1000 ng) was mixed with 4 μL of 6× alkaline loading dye and then electrophoretically resolved on a 0.8% alkaline agarose gel with NaOH-EDTA buffer at 4° C. The electrophoresis was carried out at 18 V for 22 h. After staining the gels with an ethidium bromide solution, the DNA was then visualized under UV light.
# [9] = test system: breast carcinoma MX-1; assay: In vitro cytotoxicity, SRB assay, MX-1; type: cell-based, human
# From the text: as §1, §2, §3
# [10] = test system: colon carcinoma HCT-116; assay: In vitro cytotoxicity, SRB assay, HCT-116; type: cell-based, human
# From the text: as §1, §2, §3
# [11] = Table 5, 72 h incubation, read-out: Cell Growth inhibition (IC50 μM) CCRF-CEM
# [12] = Homo sapiens, CCRF-CEM, Table 7, 72 h, read-out: IC50 (μM) CCRF/CEM
# [13] = Homo sapiens, HCT-116, Table 7, 72 h
melting point [°C],Structure (SMILES),"IC50 [1, 11] [µM]",IC50 [2] [µM],"fold of cross-resistant vs IC50 of the parent cell line, CCRF-CEM/Taxol [2] [×]","fold of cross-resistant vs IC50 of the parent cell line, CCRF-CEM/VBL [3] [×]",IC50 [3] [µM],"IC50 ([4]; Table 6, 72 h) [µM]",IC50 [5] [µM],"IC50 ([6]; Table 6, 72 h) [µM]","IC50 ([7]; Table 6, 72 h) [µM]",also measured
122 to 123,"Cn1c2c(c3ccccc31)Cc1c(CO)c(CO)c(-c3ccccc3)n1C2 [Compound 26b, (3-(phenyl)-6-methyl-6,11-dihydro-5H-indolizino[6,7-b]indole-1,2-diyl)dimethanol]",,,,,,,,,,
240 to 241,"Cn1c2c(c3ccccc31)Cc1c(CO)c(CO)c(-c3ccc(F)cc3)n1C2 [Compound 26c, (3-(4-Fluorophenyl)-6-methyl-6,11-dihydro-5H-indolizino[6,7-b]indole-1,2-diyl)dimethanol]",,,,,,,,,,
200 to 201,"Cc1c(CO)c(CO)c2n1Cc1c(c3ccccc3n1C)C2 [Compound 33a, [3,6-Dimethyl-6,11-dihydro-5H-indolizino[6,7-b]indole-1,2-diyl]dimethanol]",,,,,,,,,,"IC50 [1, 12]: 0.042 ± 0.0003 µM; IC50 ([9]; Homo sapiens, Table 7, 72 h): 0.22 ± 0.019 µM; IC50 [10, 13]: 0.12 ± 0.001 µM; IC50 ([4]; Homo sapiens, NCI-H1299, Table 7, 72 h): 3.96 ± 1.79 µM; IC50 ([7]; Homo sapiens, Table 7, 72 h): 6.54 ± 2.16 µM"
195 to 196,"Cn1c2c(c3ccccc31)Cc1c(CO)c(CO)c(-c3ccc(F)c(F)c3)n1C2 [Compound 26e, (3-(3,4-Difluorophenyl)-6-methyl-6,11-dihydro-5H-indolizino[6,7-b]indole-1,2-diyl)dimethanol]",,,,,,,,,,
238 to 239,"Cn1c2c(c3ccccc31)Cc1c(CO)c(CO)c(-c3ccc(Cl)cc3)n1C2 [Compound 26d, (3-(4-Chlorophenyl)-6-methyl-6,11-dihydro-5H-indolizino[6,7-b]indole-1,2-diyl)-dimethanol]",,,,,,,,,,"IC50 [1, 12]: 4.58 ± 0.378 µM; IC50 ([9]; Homo sapiens, Table 7, 72 h): 11.3 ± 0.42 µM; IC50 [10, 13]: 13.49 ± 0.088 µM"

# More lines, now with the values behind:
Structure (SMILES),melting point [°C],"IC50 [1, 11] [µM]",IC50 [2] [µM],"fold of cross-resistant vs IC50 of the parent cell line, CCRF-CEM/Taxol [2] [×]","fold of cross-resistant vs IC50 of the parent cell line, CCRF-CEM/VBL [3] [×]",IC50 [3] [µM],"IC50 ([4]; Table 6, 72 h) [µM]",IC50 [5] [µM],"IC50 ([6]; Table 6, 72 h) [µM]","IC50 ([7]; Table 6, 72 h) [µM]",also measured
"CCNC(=O)OCc1c(COC(=O)NCC)c2sc3ccccc3n2c1-c1ccc(OC)cc1 [Compound 19g, (1-(4-Methoxyphenyl)benzo[d]pyrrolo[2,1-b]thiazole-2,3-diyl)bis(methylene)bis(ethylcarbamate)]",,0.19 ± 0.002,0.37 ± 0.001,1.90,2.20,0.42 ± 0.003,8.85 ± 1.53,17.9 ± 3.59,9.39 ± 1.9,29.5 ± 4.86,DNA interstrand cross-linking [8]: able to bind covalently (interstrand cross-linking) with DNA
"CC(C)NC(=O)OCc1c(COC(=O)NC(C)C)c2sc3ccccc3n2c1-c1ccc(F)c(F)c1 [Compound 20d, (1-(3,4-Difluorophenyl)benzo[d]pyrrolo[2,1-b]thiazole-2,3-diyl)bis(methylene)bis(iso-propylcarbamate)]",,0.33 ± 0.001,0.19 ± 0.004,0.57,0.90,0.3 ± 0.001,30.8 ± 6.92,29.6 ± 1.83,15.1 ± 1.34,74.9 ± 15.7,"IC50 ([9]; Table 6, 72 h): 1 ± 0.002 µM; IC50 ([10]; Table 6, 72 h): 0.41 ± 0.005 µM"
"COc1ccc(-c2c(COC(=O)NC(C)C)c(COC(=O)NC(C)C)c3sc4ccccc4n23)cc1 [Compound 20g, (1-(4-Methoxyphenyl)benzo[d]pyrrolo[2,1-b]thiazole-2,3-diyl)bis(methylene)bis(iso-propylcarbamate)]",,0.14 ± 0.002,0.17 ± 0.004,1.17,1.47,0.25 ± 0.008,8.19 ± 1.74,17.5 ± 0.8,7.23 ± 1.57,60.9 ± 13.4,DNA interstrand cross-linking [8]: able to bind covalently (interstrand cross-linking) with DNA
"OCc1c(CO)c2sc3ccccc3n2c1-c1ccc(F)cc1 [Compound 18b, (1-(4-Fluorophenyl)benzo[d]pyrrolo[2,1-b]thiazole-2,3-diyl)dimethanol]",,,,2.41,3.50,,,,,,"IC50 ([1]; Homo sapiens, CCRF-CEM, Table 5, 72 h incubation, read-out: Cell Growth inhibition (IC50 μM) CCRF-CEM): 1.06 ± 0.04 µM; IC50 ([2]; Homo sapiens, CCRF-CEM): 2.56 ± 0.012 µM; IC50 ([3]; Homo sapiens, CCRF-CEM): 3.72 ± 0.175 µM; IC50 ([9]; Homo sapiens, Table 6, 72 h): 2.77 ± 0.005 µM; IC50 ([10]; Homo sapiens, HCT-116, Table 6, 72 h): 9.59 ± 0.19 µM; IC50 ([4]; Homo sapiens, NCI-H1299, Table 6, 72 h): 9.27 ± 1.69 µM; IC50 ([5]; Homo sapiens): 13.8 ± 2.15 µM; IC50 ([6]; Homo sapiens, OECM1, Table 6, 72 h): 6.03 ± 1.2 µM; IC50 ([7]; Homo sapiens, Table 6, 72 h): 15.5 ± 1.31 µM"
"CCNC(=O)OCc1c(COC(=O)NCC)c2sc3ccccc3n2c1-c1ccc(F)c(F)c1 [Compound 19d, (1-(3,4-Difluorophenyl)benzo[d]pyrrolo[2,1-b]thiazole-2,3-diyl)bis(methylene)bis(ethylcarbamate)]",,0.21 ± 0.01,0.34 ± 0.008,1.61,1.47,0.31 ± 0.002,10.3 ± 1.11,19.3 ± 3.44,14.6 ± 3.39,38.5 ± 7.21,"IC50 ([9]; Table 6, 72 h): 1.49 ± 0.04 µM; IC50 ([10]; Table 6, 72 h): 1.1 ± 0.015 µM"
"COc1cc(-c2c(CO)c(CO)c3sc4ccccc4n23)cc(OC)c1OC [Compound 18i, (1-(3,4,5-Trimethoxyphenyl)benzo[d]pyrrolo[2,1-b]thiazole-2,3-diyl)dimethanol]",160 to 161,,,,,,,,,,
"OCc1c(CO)c2sc3ccccc3n2c1-c1ccc(Cl)c(Cl)c1 [Compound 18e, (1-(3,4-Dichlorophenyl)benzo[d]pyrrolo[2,1-b]thiazole-2,3-diyl)dimethanol]",159 to 160,,,,,,,,,,
"COc1ccc(-c2c(CO)c(CO)c3sc4ccccc4n23)cc1OC [Compound 18h, (1-(3,4-Dimethoxyphenyl)benzo[d]pyrrolo[2,1-b]thiazole-2,3-diyl)dimethanol]",215 to 216,,,,,,,,,,
"CCNC(=O)OCc1c(COC(=O)NCC)c2sc3ccccc3n2c1-c1ccc(F)cc1 [Compound 19b, (1-(4-Fluorophenyl)benzo[d]pyrrolo[2,1-b]thiazole-2,3-diyl)bis(methylene)bis(ethylcarbamate)]",,0.07 ± 0.0002,0.38 ± 0.002,5.42,6.42,0.45 ± 0.033,13.6 ± 2.03,23.7 ± 3.05,11.5 ± 2.63,29.2 ± 2.63,"IC50 ([9]; Table 6, 72 h): 0.48 ± 0.005 µM; IC50 ([10]; Table 6, 72 h): 0.52 ± 0.025 µM"
"OCc1c(CO)c2sc3ccccc3n2c1-c1ccc(F)c(Cl)c1 [Compound 18f, (1-(3-Chloro-4-fluorophenyl)benzo[d]pyrrolo[2,1-b]thiazole-2,3-diyl)dimethanol]",178 to 179,,,,,,,,,,

# Source: US8703951B2, “Synthesis of 4H-benzo[D]pyrrolo[1,2-A]thiazoles and indolizino[6,7-b]indole derivatives and their use as antitumor therapeutic agents” (Academia Sinica, priority 2011, dated 2014)
